Measurements: article PMC5248581 (PeerJ, 2017)
“Also recorded” adds a separate entry of the source. Like-named read-outs stand apart in the source and are kept apart here. Residues, ends and D or L forms follow the SMILES beside them.

What was measured:
[1] = target: T1, human isolated umbilical vein (BK B2R; histamine H1R) (Homo sapiens, UniProt P30411)
T1 sequence (P30411 1-391): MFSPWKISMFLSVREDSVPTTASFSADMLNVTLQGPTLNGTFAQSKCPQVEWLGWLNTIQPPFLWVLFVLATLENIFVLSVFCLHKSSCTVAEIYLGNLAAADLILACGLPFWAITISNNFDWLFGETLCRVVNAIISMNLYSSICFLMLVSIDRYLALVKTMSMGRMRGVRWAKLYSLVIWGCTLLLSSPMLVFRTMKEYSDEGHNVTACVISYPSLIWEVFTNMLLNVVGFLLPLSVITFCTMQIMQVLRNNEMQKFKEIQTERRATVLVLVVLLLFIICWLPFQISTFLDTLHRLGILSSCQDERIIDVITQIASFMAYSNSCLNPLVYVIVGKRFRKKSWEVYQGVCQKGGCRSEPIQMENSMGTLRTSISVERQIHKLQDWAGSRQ
Excerpt: The institutional research ethics board (CHU de Québec) approved the anonymous use of human umbilical cord segments obtained after elective cesarean section deliveries (file number: 2012-323). Informed written consent was obtained from mothers.
(§1) Results are presented as means ± s.e.m. Radioligand binding data were fitted by nonlinear regression to a one-site competition equation using a least-square method (Prism 5.0; GraphPad Software Inc., San Diego, CA, USA) and IC50 values calculated from this procedure. The same computer program was used to draw concentration-effect curves (least square fitting of sigmoidal dose–response equation with variable slope) and to derive contractile EC50 values. Data describing baseline values of heart rate and mean arterial blood pressure and hypotensive responses to peptides in anesthetized rats were assessed by using one-way analysis of variance (ANOVA) followed by the Dunnett’s test (repeated comparison with a common control). The effects of drugs on the hypotensive responses to each dose of MK were assessed by using ANOVA followed by the Dunnett’s test.

[2] = LC-MS of MK incubated with human umbilical vein ring; type: in vitro ADME; conditions: 37 °C; for fragment generated from MK: MK 1 µM in Krebs with umbilical vein ring, 5 or 15 min, LC-MS, duplicate; for increase of fragment ion intensity on reaction with tissue: vs. contaminant in commercial MK, MK 1 µM
Procedure: Synthetic MK (1 µM) was submitted to digestion in 2 ml of sterile-filtered Krebs solution in the presence of a freshly prepared ring of human umbilical vein (wet weight 25–37 mg). The tubes containing these materials were incubated at 37 °C for 5 or 15 min; the tissues were then removed and five volumes of cold ethanol (10 ml) were added to each tube. The tubes were incubated for 1 h on ice, centrifuged at 10,000 g to remove precipitated proteins and the kinin-containing supernatants were collected (procedure previously validated, [Raymond et al., 1995]). The supernatants were then completely evaporated to dryness in a Speedvac system and reconstituted in a small volume of water. Peptides were desalted on stage tip (C18), vacuum dried and then resuspended into 0.1% formic acid. One hundred fmol of each sample (starting MK quantity) was analyzed by mass spectrometry.
Mass spectrometry: peptide samples were separated by online reversed-phase (RP) nanoscale capillary liquid chromatography (nanoLC) and analyzed by electrospray mass spectrometry (ES MS/MS). The experiments were performed with a Ekspert NanoLC425 (Eksigent) coupled to a 5600+ mass spectrometer (AB Sciex, Framingham, MA, USA) equipped with a nanoelectrospray ion source. Peptide separation took place on a picofrit column (Reprosil 3u, 120A C18, 15 cm × 0.075 mm internal diameter). Peptides were eluted with a linear gradient from 5–35% solvent B (acetonitrile, 0.1% formic acid) in 35 min, at 300 nL/min. Mass spectra were acquired using a data dependent acquisition mode using Analyst software version 1.7. […] Dynamic exclusion was set for a period of 3 s and a tolerance of 100 ppm
Database searching: MGF peak list files were created using Protein Pilot version 5.0 software (Sciex) utilizing the Paragon and Progroup algorithms. MGF sample files were then analyzed using Mascot (Matrix Science, London, UK; version 2.5.1).
Mascot was set up to search the MK sequence assuming that the digestion enzyme was non-specific. Mascot was searched with a fragment ion mass tolerance of 0.100 Da and a parent ion tolerance of 0.100 Da. Deamidation of asparagine and glutamine and oxidation of methionine were specified in Mascot as variable modifications. Scaffold (version Scaffold_4.7.1; Proteome Software Inc., Portland, OR, USA) was used to validate MS/MS based peptide and protein identifications.
Data processing: Peak View 1.2.0.1 (Sciex) was used to extract the specific precursor masses and calculate the area under the curve. Extracted ion chromatoram (XIC) were generated from the TOF MS using a peak width of 0.05.

male Sprague-Dawley rats = conditions: for Basal mean arterial blood pressure after pre-treatment / Basal heart rate after pre-treatment: 15 min after i.v., enalaprilat 0.1 mg/kg n=6, icatibant 25 µg/kg n=6, pyrilamine 5 mg/kg n=16, means ± s.e.m.; for Basal mean arterial blood pressure after pre-treatment: control 96.5 ± 2.5; for Basal heart rate after pre-treatment: control 351 ± 10, * P < 0.01 vs control; for effect of pretreatment on hypotensive effect of MK: enalaprilat 0.1 mg/kg, icatibant 25 µg/kg, 15 min before MK
Procedure: All surgical and experimental procedures were reviewed and approved by the Animal Care and Handling Committee of Laval University, in accordance with the Canadian Council on Animal Care (file no. 2012-223). Experiments were performed on male Sprague-Dawley rats (300–375 g) purchased from Charles River Laboratories (St-Constant, Qc, Canada). Only animals of the male gender have been studied to be consistent with related and recently published data ([Jean et al., 2016a]). The rats were housed in a temperature-controlled room (22 ± 1 °C) on a 12 h/12 h light-dark cycle (lights on at 0600) and had free access to normal chow diet and tap water. They were allowed to acclimate to their environmental conditions for one week prior to being studied. At the end of the acclimation period, the rats were anesthetised with sodium pentobarbital (50 mg kg^−1, i.p., supplemented as required) and had one catheter implanted into the right jugular vein (for intravenous ( i.v.) injection) and one into the left femoral artery (for direct and continuous measurement of blood pressure and heart rate as previously described, [Jean et al., 2016a]). In some experiments, a miniaturized pulsed Doppler flow probe ([Haywood et al., 1981]) was implanted around the distal abdominal aorta (below the level of the ileocaecal artery) through a midline abdominal incision to monitor changes in hindquarter hemodynamic, according to the method previously developed by [Gardiner & Bennett (1988)] and as previously described ([Bachelard et al., 1992]; [Jean et al., 2016a]). Experiments started at least 30 min following the end of surgery in anesthetised rats.
Baseline heart rate and phasic and mean arterial blood pressure were recorded over a period of 15 min in anesthetized rats. […] Peptides were dissolved in isotonic saline (0.9% NaCl) containing 0.1% BSA to prevent the adsorption of peptide to the glassware and plastic surfaces. All i.v. injections were given as 100 µl boluses which were washed in with a further 100 µl of saline (the dead space of the catheter). Only one peptide was tested per group of rats and each injection started with saline-BSA 0.1% followed by the lowest dose of peptide. The next dose was administered once all recorded cardiovascular parameters had returned to baseline after the previous injection (usually 2–10 min). At the end of the experiments each animal was euthanized with an overdose of sodium pentobarbital (240 mg/kg, i.v.).
In these experiments, enalaprilat was intravenously administered as bolus (0.1 mg/kg, 0.1 ml) following a 10 min period of baseline measurements of heart rate and blood pressure. Fifteen minutes later, a dose–response curve to MK was obtained, as described above. […] In these experiments, icatibant was intravenously administered as bolus (25 µg/kg, 0.1 ml) 15 min before the i.v. injection of increasing doses of MK, as above. […] In these experiments, pyrilamine was intravenously administered as bolus (5 mg/kg, 0.1 ml) 15 min before the i.v. injection of increasing doses of MK, as above.
as §1, with “control).” for “control). The effects of drugs on the hypotensive responses to each dose of MK were assessed by using ANOVA followed by the Dunnett’s test.”

## CC(C)C[C@H](NC(=O)[C@H]1O[C@@H]1C(=O)O)C(=O)NCCCCN=C(N)N [E-64]
[1]; inhibitor 30 min before MK
  effect of protease/peptidase inhibitor on contractile potency of MK: failed to change the concentration-effect curve of MK

## O=C([O-])CN(CCN(CC(=O)[O-])CC(=O)[O-])CC(=O)[O-].[Ca+2].[Na+].[Na+] [EDTA calcium disodium]
[1]
  effect of protease/peptidase inhibitor on contractile potency of MK: The same applied

## N=C(N)NCCC[C@H](NC(=O)[C@H](Cc1ccccc1)NC(=O)[C@@H]1CCCN1C(=O)[C@H](CO)NC(=O)[C@H](Cc1ccccc1)NC(=O)CNC(=O)[C@@H]1CCCN1C(=O)[C@@H]1CCCN1C(=O)[C@H](CCCNC(=N)N)NC(=O)[C@@H]1CCCN1C(=O)CN)C(=O)O [Gly-Pro-BK] (H-GPRPPGFSPFR-OH)
[2]
  fragment generated from MK: evidenced in a time-dependent manner; also recorded: metabolite that accumulates
  increase of fragment ion intensity on reaction with tissue: 3-4 -fold

## N=C(N)NCCC[C@H](NC(=O)[C@H](Cc1ccccc1)NC(=O)[C@@H]1CCCN1C(=O)[C@H](CO)NC(=O)[C@H](Cc1ccccc1)NC(=O)CNC(=O)[C@@H]1CCCN1C(=O)[C@@H]1CCCN1C(=O)[C@H](CCCNC(=N)N)NC(=O)[C@@H]1CCCN1C(=O)CNC(=O)[C@@H](N)CCCCN)C(=O)O [Lys-Gly-Pro-BK] (H-KGPRPPGFSPFR-OH)
[2]
  fragment generated from MK: evidenced in a time-dependent manner; also recorded: major C-terminal metabolite
  increase of fragment ion intensity on reaction with tissue: 3-4 -fold

## C[C@H](N[C@@H](CCc1ccccc1)C(=O)O)C(=O)N1CCC[C@H]1C(=O)O [enalaprilat]
Male Sprague-Dawley rats
  Basal mean arterial blood pressure after pre-treatment: 94.9 ± 4.6
  Basal heart rate after pre-treatment: slight but significant increase in basal HR
Male Sprague-Dawley rats; listed as Enalaprilat
  Basal heart rate after pre-treatment: 417 ± 13^*
Male Sprague-Dawley rats; pyrilamine 5 mg/kg i.v.
  effect of pretreatment on hypotensive effect of MK: not significantly potentiated

## CC(=O)N[C@@H](CC(C)C)C(=O)N[C@@H](CC(C)C)C(=O)N[C@H](C=O)CCCNC(=N)N [leupeptin]
[1]; inhibitor 30 min before MK
  effect of protease/peptidase inhibitor on contractile potency of MK: The same applied

## O=C(N[C@H]1CCS[C@H]2CCC[C@@H](C(=O)O)N2C1=O)[C@@H](S)Cc1ccccc1 [omapatrilat]
[1]; inhibitor 30 min before MK
  effect of protease/peptidase inhibitor on contractile potency of MK: failed to modify the contractile effect of MK

## Cl.NCCc1ccc(S(=O)(=O)F)cc1 [pefabloc SC]
[1]; inhibitor 30 min before MK
  effect of protease/peptidase inhibitor on contractile potency of MK: failed to change the concentration-effect curve of MK

## COc1ccc(CN(CCN(C)C)c2ccccn2)cc1 [pyrilamine]
Male Sprague-Dawley rats
  Basal mean arterial blood pressure after pre-treatment: 87.4 ± 2.7
  Basal heart rate after pre-treatment: 335 ± 6.1
Male Sprague-Dawley rats; pyrilamine 5 mg/kg i.v.
  effect of pretreatment on hypotensive effect of MK: did not antagonize the effects of MK
Male Sprague-Dawley rats; pyrilamine 5 mg/kg i.v., histamine 6.4 µg/kg i.v.
  effect of pretreatment on hypotensive effect of histamine: abated the hypotensive effect of histamine
[1]; antagonist 1 µM, 30 min before MK
  effect of receptor antagonist on MK-induced contraction: did not reduce the venous effect of MK
[1]; antagonist 1 µM, 30 min before histamine
  effect of antagonist on histamine-induced contraction: profoundly and competitively inhibiting

## DLPKINRKGPRPP [N-terminal fragment of MK]
[2]
  fragment generated from MK: Abundant

## DLPKINRKGPRPPGF [N-terminal fragment of MK]
[2]
  fragment generated from MK: Abundant
